Experimental data taken from PubChem BioAssay AID248 (DTP/NCI, 2004).
Where “and” joins values, the source holds several entries; their conditions need not be identical. Equal entries are not always repeated. Inconclusive results and toxic doses are left out. Cut-off read from the data, not from the text of the source: active = T/C of 150% or more; inactive = T/C below 125%.

System: L1210 leukemia ip in BDF1 mice, survival T/C
Experiment: NCI In Vivo Anticancer Drug Screen. Data for tumor model L1210 Leukemia (intraperitoneal) in B6D2F1 (BDF1) mice
Conditions: endpoint: mean survival time, higher = longer survival
Summary of the method: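 Value reflects the ratio of survival in compound-treated mice to survival in vehicle-treated controls, with both groups carrying the same transplanted tumor.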

[1] = dose: 100.0 mg/kg/injection, schedule: Q01DX009 (ip), vehicle: Klucel (hydroxypropylcellulose) (HPC)
[2] = dose: 200.0 mg/kg/injection, schedule: Q01DX009 (ip), vehicle: Klucel (hydroxypropylcellulose) (HPC)
[3] = dose: 400.0 mg/kg/injection, schedule: Q01DX009 (ip), vehicle: Klucel (hydroxypropylcellulose) (HPC)
[4] = dose: 100.0 mg/kg/injection, schedule: Q01DX009 (ip), vehicle: saline
[5] = dose: 200.0 mg/kg/injection, schedule: Q01DX009 (ip), vehicle: saline
[6] = dose: 400.0 mg/kg/injection, schedule: Q01DX009 (ip), vehicle: saline
[7] = dose: 100.0 mg/kg/injection, schedule: Q04DX003 (ip), vehicle: Klucel (hydroxypropylcellulose) (HPC)
[8] = dose: 200.0 mg/kg/injection, schedule: Q04DX003 (ip), vehicle: Klucel (hydroxypropylcellulose) (HPC)
[9] = dose: 400.0 mg/kg/injection, schedule: Q04DX003 (ip), vehicle: Klucel (hydroxypropylcellulose) (HPC)

Measured: T/C

NC(=S)S.[Zn+2]
inactive: dose: 13.3 mg/kg/injection, schedule: Q01DX Z (ip), vehicle: methylcellulose (MC) 96 % of control | dose: 20.0 mg/kg/injection, schedule: Q01DX Z (ip), vehicle: methylcellulose (MC) 90 % of control | dose: 30.0 mg/kg/injection, schedule: Q01DX Z (ip), vehicle: methylcellulose (MC) 90 % of control

BrC1CC2C3CCC(C3)C2C1Br (stereo unspecified)
inactive: dose: 50.0 mg/kg/injection, schedule: Q01DX001 (ip), vehicle: carboxymethylcellulose (CMC) 91 % of control | dose: 100.0 mg/kg/injection, schedule: Q01DX001 (ip), vehicle: carboxymethylcellulose (CMC) 93 % of control | dose: 200.0 mg/kg/injection, schedule: Q01DX001 (ip), vehicle: carboxymethylcellulose (CMC) 93 % of control | dose: 400.0 mg/kg/injection, schedule: Q01DX001 (ip), vehicle: carboxymethylcellulose (CMC) 93 % of control

CCCCCCCCCCCCCCCCCC(=O)Oc1ccc(OCc2ccccc2)cc1
inactive: [1] 105 % of control | [2] 95 % of control | [3] 97 % of control

COc1ccc(CN(N=O)c2ccc(C(=O)O)cc2)cc1
inactive: dose: 100.0 mg/kg/injection, schedule: Q01DX009 (ip), vehicle: saline with Tween-80 91 % of control | dose: 100.0 mg/kg/injection, schedule: Q04DX003 (ip), vehicle: saline with Tween-80 110 % of control | dose: 200.0 mg/kg/injection, schedule: Q01DX009 (ip), vehicle: saline with Tween-80 90 % of control | dose: 200.0 mg/kg/injection, schedule: Q04DX003 (ip), vehicle: saline with Tween-80 104 % of control | dose: 400.0 mg/kg/injection, schedule: Q04DX003 (ip), vehicle: saline with Tween-80 105 % of control

CCCC(=O)Nc1ccc(NS(C)(=O)=O)cc1OC
inactive: [4] 103 % of control | dose: 100.0 mg/kg/injection, schedule: Q04DX003 (ip), vehicle: saline 102 % of control | [5] 100 % of control | dose: 200.0 mg/kg/injection, schedule: Q04DX003 (ip), vehicle: saline 102 % of control | [6] 102 % of control | dose: 400.0 mg/kg/injection, schedule: Q04DX003 (ip), vehicle: saline 100 % of control

C/C=C(\C)C(N)=Nc1ccc(Cl)c(Cl)c1
inactive: dose: 55.0 mg/kg/injection, schedule: Q01DX Z (ip), vehicle: methylcellulose (MC) 106 % of control | dose: 83.0 mg/kg/injection, schedule: Q01DX Z (ip), vehicle: methylcellulose (MC) 102 % of control | dose: 125.0 mg/kg/injection, schedule: Q01DX Z (ip), vehicle: methylcellulose (MC) 102 % of control

COC(=O)CC1OCC=C2CN3CCC45C6=CC(=O)C(=O)C([N+](=O)[O-])=C6NC4C1C2CC35 (stereo unspecified)
inactive: dose: 5.0 mg/kg/injection, schedule: Q01DX001 (ip), vehicle: saline 97 % of control | dose: 10.0 mg/kg/injection, schedule: Q01DX001 (ip), vehicle: saline 97 % of control

c1ccc(/C2=C(\c3ccccc3)CSSSSC2)cc1
inactive: dose: 50.0 mg/kg/injection, schedule: Q04DX003 (ip), vehicle: Klucel (hydroxypropylcellulose) (HPC) 105 % of control | [7] 98 % of control | [8] 98 % of control

CC1c2c(c3ccccc3n2C)CC[N+]1(C)C (stereo unspecified)
inactive: dose: 12.5 mg/kg/injection, schedule: Q01DX009 (ip), vehicle: carboxymethylcellulose (CMC) 109 % of control and 88 % of control | dose: 25.0 mg/kg/injection, schedule: Q01DX009 (ip), vehicle: carboxymethylcellulose (CMC) 115 % of control and 86 % of control | dose: 25.0 mg/kg/injection, schedule: Q04DX002 (ip), vehicle: carboxymethylcellulose (CMC) 102 % of control and 103 % of control | dose: 25.0 mg/kg/injection, schedule: Q04DX003 (ip), vehicle: carboxymethylcellulose (CMC) 102 % of control | dose: 50.0 mg/kg/injection, schedule: Q01DX009 (ip), vehicle: carboxymethylcellulose (CMC) 94 % of control and 88 % of control | dose: 50.0 mg/kg/injection, schedule: Q04DX002 (ip), vehicle: carboxymethylcellulose (CMC) 94 % of control and 99 % of control | dose: 50.0 mg/kg/injection, schedule: Q04DX003 (ip), vehicle: carboxymethylcellulose (CMC) 105 % of control | dose: 100.0 mg/kg/injection, schedule: Q04DX003 (ip), vehicle: carboxymethylcellulose (CMC) 116 % of control

CC(=O)C(C(=O)c1ccccc1)C(c1ccccc1)c1ccccc1 (stereo unspecified)
inactive: dose: 100.0 mg/kg/injection, schedule: Q01DX001 (ip), vehicle: Klucel (hydroxypropylcellulose) (HPC) 93 % of control | [7] 92 % of control | dose: 200.0 mg/kg/injection, schedule: Q01DX001 (ip), vehicle: Klucel (hydroxypropylcellulose) (HPC) 90 % of control | [8] 96 % of control | dose: 400.0 mg/kg/injection, schedule: Q01DX001 (ip), vehicle: Klucel (hydroxypropylcellulose) (HPC) 92 % of control | [9] 94 % of control

COc1cc2c(cc1OC)C1Cc3cc(OC)c(OC)cc3C(C2)N1
inactive: dose: 75.0 mg/kg/injection, schedule: Q01DX001 (ip), vehicle: saline 97 % of control | dose: 150.0 mg/kg/injection, schedule: Q01DX001 (ip), vehicle: saline 97 % of control | dose: 300.0 mg/kg/injection, schedule: Q01DX001 (ip), vehicle: saline 97 % of control

CC(C)(C)NCC1CCCC1
inactive: dose: 20.0 mg/kg/injection, schedule: Q04DX003 (ip), vehicle: saline 109 % of control | dose: 40.0 mg/kg/injection, schedule: Q04DX003 (ip), vehicle: saline 115 % of control | dose: 80.0 mg/kg/injection, schedule: Q04DX003 (ip), vehicle: saline 111 % of control

O=C(Nc1ccc(Cl)cc1[N+](=O)[O-])c1ccc2ccccc2c1O
inactive: [1] 101 % of control | [2] 111 % of control | [3] 103 % of control

ClC(Cl)(Cl)C/C=C\CBr
inactive: dose: 25.0 mg/kg/injection, schedule: Q01DX009 (ip), vehicle: acetone 98 % of control | dose: 50.0 mg/kg/injection, schedule: Q01DX009 (ip), vehicle: acetone 102 % of control | dose: 50.0 mg/kg/injection, schedule: Q04DX003 (ip), vehicle: acetone 97 % of control | dose: 100.0 mg/kg/injection, schedule: Q01DX001 (ip), vehicle: acetone 89 % of control | dose: 100.0 mg/kg/injection, schedule: Q01DX009 (ip), vehicle: acetone 93 % of control | dose: 100.0 mg/kg/injection, schedule: Q04DX003 (ip), vehicle: acetone 92 % of control | dose: 200.0 mg/kg/injection, schedule: Q01DX001 (ip), vehicle: acetone 91 % of control

O=C(COc1ccc(Cl)c(Cl)c1)NCc1ccc[n+](CC(=O)Nc2ccc(S(=O)(=O)F)cc2)c1
inactive: [4] 100 % of control | [5] 94 % of control

Cc1ccc(C(=O)CN(Cc2ccccc2)Cc2ccccc2)cc1
inactive: [1] 103 % of control | [7] 98 % of control | [2] 97 % of control | [8] 92 % of control | [3] 92 % of control | [9] 91 % of control

O=S1(=O)C2CCCCCC2(N2CCOCC2)C1c1ccccc1 (stereo unspecified)
inactive: dose: 100.0 mg/kg/injection, schedule: Q04DX002 (ip), vehicle: Klucel (hydroxypropylcellulose) (HPC) 101 % of control | dose: 200.0 mg/kg/injection, schedule: Q04DX002 (ip), vehicle: Klucel (hydroxypropylcellulose) (HPC) 97 % of control | dose: 400.0 mg/kg/injection, schedule: Q04DX002 (ip), vehicle: Klucel (hydroxypropylcellulose) (HPC) 93 % of control

Cc1cc(NC(=O)NCc2ccc(N3C(N)=NC(N)=NC3(C)C)cc2)ccc1S(=O)(=O)F
inactive: dose: 50.0 mg/kg/injection, schedule: Q01DX009 (ip), vehicle: saline 102 % of control | [4] 119 % of control | [5] 107 % of control | [6] 114 % of control

C1=C(c2ccccc2)CCCC1
inactive: [1] 92 % of control | [7] 106 % of control | [2] 95 % of control | [8] 100 % of control | [3] 109 % of control | [9] 92 % of control

Cc1ccc(CNC(=S)NC2CCCCC2)cc1C
inactive: dose: 25.0 mg/kg/injection, schedule: Q01DX009 (ip), vehicle: Klucel (hydroxypropylcellulose) (HPC) 97 % of control | dose: 50.0 mg/kg/injection, schedule: Q01DX009 (ip), vehicle: Klucel (hydroxypropylcellulose) (HPC) 93 % of control | [1] 93 % of control

COc1c2occc2c(OC)c2c(=O)cc(/C=C/c3ccncc3)oc12
inactive: dose: 100.0 mg/kg/injection, schedule: Q01DX001 (ip), vehicle: saline 97 % of control | dose: 200.0 mg/kg/injection, schedule: Q01DX001 (ip), vehicle: saline 94 % of control | dose: 400.0 mg/kg/injection, schedule: Q01DX001 (ip), vehicle: saline 101 % of control
